# In patent US9453198B2, “Method of nociceptor differentiation of human embryonic stem cells and uses thereof” (MEMORIAL SLOAN KETTERING CANCER CENTER, priority 2010, dated 2016):
# Tests used:
# [1] = test system: transgenic SOX10::GFP BAC hESC line; assay: SOX10::GFP reporter FACS (neural crest induction); format: cell-based, human; details: by day 12 of differentiation
# Source text: Thus, in order to determine if a neural crest intermediate cell fate marked by SOX10 (Aoki, et al., Dev Biol 259, 19-33, (2003); Lee, et al., Nat Biotechnol 25, 1468-1475, (2007), herein incorporated by reference) in human cells would be observed during differentiation using a transgenic SOX10::GFP bacterial artificial chromosome (BAC) hPSC line. This SOX10:: GFP (BAC) cell line was generated with enriched neural crest gene markers that co-expressed with a GFP gene using methods previously reported (Placantonakis, et al., Stem Cells 27:521-532, (2009), herein incorporated by reference). The SOX10:GFP cell line was a sub-clone of the H9 hESC line. Cells were dissociated and gene delivery was performed using reagents (solution V), protocol (B-16), and equipment from Amaxa. The DNA nucleofected (transfected into the nucleus) was a bacterial artificial chromosome (BAC) containing the SOX10 gene with an inserted GFP, obtained from Gene Expression Nervous System Atlas [GENSAT] (accession number: GENSAT1-BX1086). […]
# [2] = test system: hPSCs; assay: Intracellular FACS for Nestin and TUJ1 (efficiency of neuronal differentiation); format: cell-based, human; details: day 10, further inhibitors added day 2 of LSB treatment
# Procedure: In the presence of LSB, SU/DAPT, DAPT, SU and CHIR, the majority of cells expressed Nestin. In particular, >95% of the LSB cell population were Nestin+.
# Neural induction was performed as previously reported (Chambers, et al., Nat Biotechnol 27, (2009), herein incorporated by reference). Briefly, cells were collected then rendered to a single cell suspension using ACCUTASE (Sigma-Aldrich Corp. St. Louis, Mo., USA) and plated on gelatin for 30 minutes to remove Mouse Embryonic Fibroblast (MEF) Feeder Cells (MEFs) (MEFs adhere to gelatin coated plate). Non-adherent cells were collected and plated on matrigel treated dishes at a density of 20-40,000 cells/cm^2 in the presence of MEF-conditioned hESC media containing 10 ng/ml FGF-2 and 10 μM Y-27632 (rho-kinase inhibitor—Tocris Bioscience). Neural differentiation was initiated when the cells were confluent using Knockout Serum Replacement (KSR) media containing 820 ml of Knockout DMEM, 150 ml Knockout Serum Replacement, 1 mM L-glutamine, 100 μM MEM non-essential amino acids, and 0.1 mM β-mercaptoethanol. To inhibit SMAD signaling, 100 nM LDN-193189 and 10 μM SB431542 were added daily from day 0 (when SMAD signaling inhibitors LSB were added) through day 5. Cells were fed daily (i.e. 6 feedings with inhibitors, D0, D1, D2, D3, D4 and D5), and N2 media was added to the initial medium in increasing 25% increments every other day starting on day 4 (up to 100% N2 on day 10). […] After day 10, long-term culture media consisted of N2 media containing 10-100 ng/ml human-β-nerve growth factor (NGF), 10-100 ng/ml brain-derived neurotrophic factor (BDNF), and 10-100 ng/ml glial cell-derived neurotrophic factor (GDNF).
# Cells were fixed with 4% paraformaldehyde for 20 minutes, washed with phosphate buffered saline (PBS), permeablized using 0.5% Triton X in PBS, and blocked using 1% BSA (bovine serum albumin) in phosphate buffered saline (PBS). For glutamate staining, 0.05% gluteraldehyde was added to the fixative. […]
# [3] = test system: rodent GSK3β homologs; details: cited from earlier work
# [4] = test system: human ES cells; assay: Combinatorial small molecule screen, TUJ1/PAX6 immunofluorescence on day 10; format: cell-based; details: no matter when added during LSB treatment
# Source text: Specifically, in the context of dual SMAD inhibition (LSB), i.e. human ES cells were first treated with LSB (LDN-193189 and SB431542) for screening candidate compounds (i.e. small molecules) under approximately 400 conditions in order to find combinations of small molecules that might accelerate the acquisition of postmitotic neuron markers starting from human ES cells. Candidate compounds were chosen from molecules that targeted (altered) cell signaling pathways known to be important and frequently used in developmental studies in order to determine cell fates (for example, signaling pathways such as FGF, Notch, WNT, SHH (Sonic Hedgehog), etc.) for determining cells capable of CNS development. […]
# On day 10 after addition of LSB, cells that survived during the screen were monitored for the loss of the human neuroectoderm marker PAX6 (Zhang, et al., Cell Stem Cell 7, 90-100, (2010), herein incorporated by reference) and initiation of neuronal differentiation by TUJ1 expression (Lee, et al., Cell Motil Cytoskeleton 17, 118-132, (1990), herein incorporated by reference). […] In general, results were determined by observing comparative amounts of TUJ1+/PAX6− staining of cells generated by each treatment such that the conditions and compounds showing the highest amounts of TUJ1+/PAX6− staining were chosen as successful for providing cells for further analysis. […]
# [5] = test system: hESC; assay: Timing of 3i addition after LSB induction (survival, TUJ1); format: cell-based
# Source text: Cells were stained for identifying antibodies that bound to OCT4 (dark) and PAX6 (light) in addition to a nuclear 4′-6 Diamidino-2-phenylindole (DAPI) stain.
# The stem cells treated with the combination of LSB and 3i were fixed on day 11 and examined for survival and expression of the neuronal marker TUJ1.
# [6] = test system: melanocyte precursors from hESC; assay: Expansion and maturation of melanocytes; format: cell-based, human; details: component left out of formulation
# Source text: Melanocyte characteristics evaluated included induction of spindle morphology, pigmentation, and melanosome formation.
# Specifically, the following time line of culturing conditions was developed that produced melanocytes of the present inventions: Feed on Day 0 and 1 with LDN and SB (using the same concentration ranges as LDN and SB in methods comprising 3i); Feed on Day 2 with LDN, SB, CHIR (using the same concentration ranges as LDN, SB, and CHIR in methods comprising 3i as described herein); In one embodiment, Feed on Day 3 with SB, CHIR (using the same concentration ranges as SB and CHIR in methods comprising 3i as described herein), in another embodiment Feed on Day 3 with LDN, SB, CHIR (using the same concentration ranges as LDN, SB, and CHIR in methods comprising 3i as described herein); Feed on Day 4 and 5 CHIR (using the same concentration ranges as CHIR in methods comprising 3i as described herein); Feed on Day 6 to 11 CHIR, BMP4, and EDN3 (using the same concentration ranges as CHIR in methods comprising 3i as described herein, see concentration ranges below for BMP4 and EDN3). On day 11 cells were passaged and fed with MEL media (including CHIR) up to 8 weeks. […]
smiles,measurement,setting,value
"Cc1c[nH]c(-c2cnc(NCCNc3ccc(C#N)cn3)nc2-c2ccc(Cl)cc2Cl)n1 [CHIR99021, 6-(2-(4-(2,4-dichlorophenyl)-5-(4-methyl-1H-imidazol-2-yl)pyrimidin-2-ylamino)ethylamino)nicotinonitrile]",SOX10::GFP+ cells,[1],greater than 70%
same,Nestin positive cells (progenitors),[2],majority
same,IC50 values,[3],nanomolar
CC1=C2C[C@H]3[C@@H](CC=C4C[C@@H](O)CC[C@@]43C)[C@@H]2CC[C@]12O[C@@H]1C[C@H](C)CN[C@H]1[C@H]2C [Cyclopamine],effect on TUJ1/PAX6 staining,[4],no effect
"C[C@H](NC(=O)Cc1cc(F)cc(F)c1)C(=O)N[C@H](C(=O)OC(C)(C)C)c1ccccc1 [DAPT, N—[N-(3,5-Difluorophenacetyl)-L-alanyl]-S-phenylglycine t-butyl ester]",Nestin positive cells (progenitors),[2],majority
"c1ccc2c(-c3cnn4cc(-c5ccc(N6CCNCC6)cc5)cnc34)ccnc2c1 [LDN193189, 4-(6-(4-(piperazin-1-yl)phenyl)pyrazolo[1,5-a]pyrimidin-3-yl)quinoline]",effect of inclusion or exclusion from days 5 to 10 on the differentiation,[5],does not make a difference
CCCCC/C=C\C/C=C\CCCCCCCC(=O)O [Linoleic Acid],requirement in medium for growth of melanocytes,[6],required
"Cc1c[nH]c(/C=C2\C(=O)Nc3ccccc32)c1CCC(=O)O [SU5402, 2-[(1,2-Dihydro-2-oxo-3H-indol-3-ylidene)methyl]-4-methyl-1H-pyrrole-3-propanoic acid]",Nestin positive cells (progenitors),[2],majority
